The text below walks through data of EP4745135A1 (Gluetacs Therapeutics (Shanghai) Co., Ltd., priority 2023, dated 2025).

Where only a bound is given, the exact number is not on record here.

For the assay, the target named is T1, human Cereblon WT GST-tagged protein (Homo sapiens, UniProt Q96SW2).
T1 construct: purchased CISBIO 64BDCRBNPEH
Description: CRBN-binding affinity, HTRF (CEREBLON BINDING kit). Conditions: for inhibition at 0.5 µM: read-out: Inhibition Rate at 0.5 µM (%); for inhibition at 2 µM: read-out: Inhibition Rate at 2 µM (%). Here is the method:
The CEREBLON BINDING kits (specification: 10,000 tests; product number: Catalog # 64BDCRBNPEH; CISBIO company) was used to determine the CRBN binding ability of the compounds to be tested through a HTRF method (homogeneous time-resolved fluorescence). The specific methods are as follows: • 1. […] Specifically, diluent #9 (1X) solution was used as the diluent, and multiple concentration gradients were set. […] Then, 2.5 µL of human Cereblon WT GST-tagged protein solution was added to each well. Finally, 5 µL of the thoroughly mixed Thalidomide-Re reagent and GST Eu antibody working solution were added to each of the aforementioned wells. […] The blank control wells were sequentially added with 2.5 µL of diluent #9 (1X) solution, 2.5 µL of PROTAC binding buffer, and 5 µL of thoroughly mixed Thalidomide-Re reagent and GST Eu antibody working solution. • 4.
Background: TR-FRET usually uses a lanthanide donor and a delayed reading to cut background.

T1 sequence (Q96SW2 whole entry): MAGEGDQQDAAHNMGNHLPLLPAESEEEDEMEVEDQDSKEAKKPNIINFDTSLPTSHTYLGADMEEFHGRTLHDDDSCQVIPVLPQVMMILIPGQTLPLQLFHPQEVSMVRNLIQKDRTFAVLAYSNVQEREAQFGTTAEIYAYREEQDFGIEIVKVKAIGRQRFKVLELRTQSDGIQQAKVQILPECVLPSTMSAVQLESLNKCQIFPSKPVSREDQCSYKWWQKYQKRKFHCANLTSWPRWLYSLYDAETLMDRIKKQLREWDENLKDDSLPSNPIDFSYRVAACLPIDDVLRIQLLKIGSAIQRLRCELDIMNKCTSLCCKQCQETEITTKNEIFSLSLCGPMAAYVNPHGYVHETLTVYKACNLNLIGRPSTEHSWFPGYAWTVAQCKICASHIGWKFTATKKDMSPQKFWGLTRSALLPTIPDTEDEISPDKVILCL

`O=C1CCC(N2Cc3cc(CN4CCN(c5cnnc(Cl)c5Cl)CC4)ccc3C2=S)C(=O)N1` (stereo not drawn) [GT-09255, 3-(5-((4-(5,6-dichloropyridazin-4-yl)piperazin-1-yl)methyl)-1-thioxoisoindolin-2-yl)piperidine-2,6-dione]: the inhibition (in general, the relative decrease from the control value, in per cent) at 0.5 µM was in the range of 80 to 100% and the inhibition at 2 µM was in the range of 80 to 100%.
On to `O=C1CCC(N2Cc3cc(CN4CCN(c5nc6c(c(N7CCOCC7)n5)SCC6)CC4)ccc3C2=S)C(=O)N1` (stereo not drawn) [GT-09330, 3-(5-((4-(4-morpholino-6,7-dihydrothieno[3,2-d]pyrimidin-2-yl)piperazin-1-yl)methyl)-1-thioxoisoindolin-2-yl)piperidine-2,6-dione], for which the inhibition at 0.5 µM is 60 to 80% and the inhibition at 2 µM is 80 to 100%.
Taken in the same sequence, the figures for `O=C1CCC(N2Cc3cc(CN4CCC(N5CCOc6cc(F)ccc65)CC4)ccc3C2=S)C(=O)N1` (stereo not drawn) [GT-09272, 3-(5-((4-(7-fluoro-2,3-dihydro-4H-benzo[b][1,4]oxazin-4-yl)piperidin-1-yl)methyl)-1-thioxoisoindolin-2-yl)piperidine-2,6-dione] were 60 to 80% and 80 to 100%.
In the same order, the values of `Cc1cc(N2CCN(Cc3cccc4c3CN(C3CCC(=O)NC3=O)C4=S)CC2)ccn1` (stereo not drawn) [GT-08727, 3-(4-((4-(2-methylpyridin-4-yl)piperazin-1-yl)methyl)-1-thioxoisoindolin-2-yl)piperidine-2,6-dione] are 53 to 60% and 80 to 100%.
In the same order, the values of `O=C1CCC(N2Cc3cc(CN4CCN(c5cnccn5)CC4)ccc3C2=S)C(=O)N1` (stereo not drawn) [GT-09253, 3-(5-((4-(pyrazin-2-yl)piperazin-1-yl)methyl)-1-thioxoisoindolin-2-yl)piperidine-2,6-dione] are 60 to 80% and 80 to 100%.
As for `O=C1CCC(N2Cc3cc(CN4CCN(c5ncc6ccsc6n5)CC4)ccc3C2=S)C(=O)N1` (stereo not drawn) [GT-09303, 3-(5-((4-(thieno[2,3-d]pyrimidin-2-yl)piperazin-1-yl)methyl)-1-thioxoisoindolin-2-yl)piperidine-2,6-dione], the inhibition at 0.5 µM lay within 60 to 80% and the inhibition at 2 µM was 80 to 100%.
Taken in the same sequence, the figures for `O=C1CCC(N2Cc3cc(CN4CCN(c5ccnc(Cl)c5Cl)CC4)ccc3C2=S)C(=O)N1` (stereo not drawn) [GT-09354, 3-(5-((4-(2,3-dichloropyridin-4-yl)piperazin-1-yl)methyl)-1-thioxoisoindolin-2-yl)piperidine-2,6-dione] were 60 to 80% and 80 to 100%.
Consider `O=C1CCC(N2Cc3cc(CN4CCc5sccc5C4)ccc3C2=S)C(=O)N1` (stereo not drawn) [GT-05093, 3-(5-((6,7-dihydrothieno[3,2-c]pyridin-5(4H)-yl)methyl)-1-thioxoisoindolin-2-yl)piperidine-2,6-dione], for which the IC50 (in general, the concentration needed to halve the response being measured) (CRBN binding, HTRF, 3 hours at room temperature, read-out: HTRF IC50) is under 100 nM.
In the case of `O=C1CCC(N2Cc3cc(CN4CCN(c5c(F)cncc5Cl)CC4)ccc3C2=S)C(=O)N1` (stereo not drawn) [GT-09243, 3-(5-((4-(3-chloro-5-fluoropyridin-4-yl)piperazin-1-yl)methyl)-1-thioxoisoindolin-2-yl)piperidine-2,6-dione], the inhibition at 0.5 µM lay in the range of 60 to 80% and the inhibition at 2 µM was in the range of 80 to 100%.
As for `O=C1CCC(N2Cc3cc(CN4CCN(c5ccncc5F)CC4)ccc3C2=S)C(=O)N1` (stereo not drawn) [GT-09237, 3-(5-((4-(3-fluoropyridin-4-yl)piperazin-1-yl)methyl)-1-thioxoisoindolin-2-yl)piperidine-2,6-dione], the inhibition at 0.5 µM was 60 to 80% and the inhibition at 2 µM fell in the range of 80 to 100%.
For the compound `O=C1CCC(N2Cc3cc(CN4CCN(c5noc6ccncc56)CC4)ccc3C2=S)C(=O)N1` (stereo not drawn) [GT-09258, 3-(5-((4-(isoxazolo[4,5-c]pyridin-3-yl)piperazin-1-yl)methyl)-1-thioxoisoindolin-2-yl)piperidine-2,6-dione], the inhibition at 0.5 µM lay in the range of 60 to 80% and the inhibition at 2 µM lay in the range of 80 to 100%.
